Measured values from patent publication US20060188904A1, “Biosensors having single reactant components immobilized over single electrodes and methods of making and using thereof” (The Regents of the University of California, priority 2003, published 2006).
Several values for one entry are separate records, joined by “and”; a condition that tells them apart may be missing. Identical values can stand only once.

Experiments:
single neuron [1] = assay: Single neuron sensor: extracellular electrical response to chemical analytes (FFT/WT analysis, signature pattern vector); details: for Percentage reduction of signal amplitudes from the detection limit to the peak concentration: 5000 ppm to detection limit; for Percentage increase in response time from peak concentration to the sensitivity limits: about 5000 ppm to detection limit; for Response time of a single neuron extracted via WT analysis: at the detection limit; for Detection limit for a single neuron: decrementing concentrations from about 5000 ppm; for Experimentally obtained detection limit (molar): single neuron
Description: The experiments in Example 2 were conducted on mammalian cells, rat osteoblasts and neurons (18 day embryonic Wistar rat) having highly excitable cell membranes. […] A unique response of each cell type to each agent was determined. […] Additionally, the response of each cell type to a mixture of the four agents was determined in order to simulate the real time field conditions.
(§1) For example, for the experiments described herein, an experimental platform comprising a 5×5 electrode array on a substrate, a silicone chamber, and a measurement system was used. The micrograph of the fabricated electrode array on a substrate is shown in FIG. 1 with a 5×5 platinum electrode array pattern, electrode diameter of 80 μm and with a 200 μm center to center spacing. Two platinum plated leads (6 μm, thick) from each electrode terminated at two separate electrode pads. The dimensions of the electrode pads were 100 μm×120 μm. The electrode array on the substrate was coated with a permeation polyethylamine (PEI) and collagen with a volume of 200 μl (PEI, 1 mg/ml, Collagen 1X, Sigma, St. Louis, Mo.). The electrode array on the substrate with the aqueous coating of the permeation layer was incubated for about 12 hours prior to the experiment at 37 ° C. and 5% CO2.
The cells were separated and positioned over the electrodes by setting up a gradient AC field using an extracellular positioning system, comprising of a pulse generator and micromanipulators. The AC signal from the pulse generator was fed to the electrode pads of the selected electrodes using the micromanipulators. The extracellular recordings from the cells were amplified and recorded on an oscilloscope. The supply and measurement systems are integrated using general-purpose interface bus (GPIB) control and controlled through LabVIEW (National Instruments, Austin, Tex.).
Then fast Fourier transformation (FFT) and wavelet transformation (WT) analysis were used to extract important information from the extracellular action potential (AP) for the neurons. Specific spectrum power vectors (SSPVs) and the relative spectrum power values (RSPVS) were found for osteoblast. Quantitative dose response curves and response times were also obtained for the single cell systems.
Extracellular signals from individual neurons due to the action of a specific chemical analyte may be analyzed further to understand the chemical type and the cellular response relationship. Here, single neuron based sensor's response and its sensitivity is determined by statistical reconstruction and enhancement of the acquired experimental data. Each chemical was characterized by a unique SPV obtained from the integrated processing of the modified extracellular action potential in the frequency domain (FFT) as well as the time domain (WT).
Integrated signal processing yielded an SPV specific to every chemical analyte. The SPV provides unique functional data corresponding to the physiological state of a single neuron due to the action of a particular analyte at a specific concentration. Each SPV comprises of certain frequency states, which are analyte specific and having maximum relative amplitudes that are generated concurrently in the sensing cycle; these correspond to the neuron's modified stable burst rate. Extracellular signal amplitudes greater than about 50 μV are considered to be accurate measures of the cell response due to a specific chemical analyte as the magnitude of signals due to non-specific interactions and noise signals are smaller than this value.

rat osteoblasts = assay: Single osteoblast sensor: response time to chemical analytes; type: cell-based; details: at the concentration printed under each value (EDTA 280 ppm, ethanol 190 ppm, peroxide 25 ppm, pyrethroids 890 ppm), preliminary results
Description: The experiments in Example 2 were conducted on mammalian cells, rat osteoblasts and neurons (18 day embryonic Wistar rat) having highly excitable cell membranes. […] A unique response of each cell type to each agent was determined. […] Here, two out of four agents are discussed. Additionally, the response of each cell type to a mixture of the four agents was determined in order to simulate the real time field conditions. The results obtained for neurons are discussed.
as §1
The cells were separated and positioned over the electrodes by setting up a gradient AC field using an extracellular positioning system, comprising of a pulse generator and micromanipulators. The AC signal from the pulse generator was fed to the electrode pads of the selected electrodes using the micromanipulators. The extracellular recordings from the cells were amplified and recorded on an oscilloscope. […]
Then fast Fourier transformation (FFT) and wavelet transformation (WT) analysis were used to extract important information from the extracellular action potential (AP) for the neurons. […] Quantitative dose response curves and response times were also obtained for the single cell systems.

single neuron [2] = details: estimated theoretically, literature; cited from earlier work
single neuron [3] = details: hydrogen peroxide added after ethanol, both at their detection limits
Excerpt: The detection limits for individual chemicals act as the basis for determining the concentration of the specific chemical analytes used in cascaded sensing. Addition of the first chemical analyte approaching its sensitivity limit results in the acquisition of modified extracellular potential pertaining to the specific chemical analyte. The use of the chemical analyte close to its detection limit leads to the dissipation as well as metabolization of the chemical analyte within a single sensing cycle (180 seconds) that result in the reduction of the chemical analyte concentration below the detection threshold. […] Administration of the second chemical analyte results in a specific modification based on the latter.
The concentrations of the chemicals used were at their detection limits.

Row | SMILES | Percentage reduction of signal amplitudes from the detection limit to the peak concentration (single neuron [1]; n=15) | Percentage increase in response time from peak concentration to the sensitivity limits (single neuron [1]; n=15) | Response time of a single neuron extracted via WT analysis (single neuron [1]; n=15) | Detection limit for a single neuron (single neuron [1]; n=15) | Percentage reduction of signal amplitude per 1000 ppm (single neuron [1]; n=15) | Experimentally obtained detection limit (molar) (single neuron [1]) | Response time of osteoblast cells (rat osteoblasts) [sec per] | Lowest single neuron sensitivity, lowest concentration determined by existing methods (single neuron [2]) | Eigen vectors of the SPV / modified firing frequency (Example 2) (single neuron [1]; control burst rate 626 Hz, unchanged for varying concentrations, n=15) [Hz] | Frequency of firing of the neuron / eigen values of the SPV (description of FIGS. 4-7) (single neuron [1]; low and high frequency modes, hydrogen peroxide within 30 seconds of addition) | High frequency eigen vector after cascaded addition (single neuron [3]) [Hz]
1 | O=C(O)CN(CCN(CC(=O)O)CC(=O)O)CC(=O)O [EDTA, ethylenediaminetetraacetic acid] | about 67% | about 1.8% | about 0.27 second | about 180 ppm | about 10.4%±0.11% | about 3.42×10^−13 M | 0.14 | about 15 pM | – | – | –
2 | CCO [ethanol] | about 52% | about 1.6% | about 0.21 second | about 9 ppm | about 8.2%±0.12% | about 2.17×10^−12 M | 0.71 | about 25 μM | 314 | 315 Hz and 627 Hz and 314 Hz and 626 Hz | –
3 | OO [hydrogen peroxide] | about 38% | about 1.8% | about 0.07 second | about 19 ppm | about 7.8%±0.14% | about 2.94×10^−12 M | 0.42 | about 15 nM | – | – | 775
